Where two headings read alike, the source gives them in different places. Peptide text beside a SMILES is read from it. * marks the point of attachment. 5FAM = O=C1OC2(c3ccc(O)cc3Oc3cc(O)ccc32)c2ccc(C(=O)*)cc21; AMC = Cc1cc(=O)oc2cc(N*)ccc12; Cbz = O=C(OCc1ccccc1)*
Assays:
Format in all cases: biochemical
[1] = target: T1, human plasma kallikrein (Homo sapiens, UniProt P03952); assay: Kinetic parameters of the substrate Z-Gly-Pro-Arg-AMC with kallikrein (Michaelis-Menten fit)
Source text: A fluorescence intensity (FLINT) based assay was used to monitor inhibition of human plasma kallikrein. The peptide substrate, Z-Gly-Pro-Arg-AMC (Purchased from Bachem; Catalog #1-1150) was chosen based on its relatively low KM for kallikrein which enables running the assay at lower substrate concentrations to control background fluorescence.

[2] = target: T2, Factor XIa (Homo sapiens, UniProt P03951); assay: Kinetic parameters of the peptide substrate 5Fam-KLTRAETV-K5Tamra with FXIa (substrate inhibition model)
T2 sequence (P03951 388-625 limits assumed): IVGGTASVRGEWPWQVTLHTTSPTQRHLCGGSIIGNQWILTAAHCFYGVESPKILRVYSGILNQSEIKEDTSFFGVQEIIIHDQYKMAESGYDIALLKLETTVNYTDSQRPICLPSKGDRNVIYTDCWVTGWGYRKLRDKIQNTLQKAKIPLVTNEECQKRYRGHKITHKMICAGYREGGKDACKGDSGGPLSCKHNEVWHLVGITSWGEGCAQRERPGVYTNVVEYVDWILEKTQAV
T2 sequence (P03951 19-387 partner limits assumed): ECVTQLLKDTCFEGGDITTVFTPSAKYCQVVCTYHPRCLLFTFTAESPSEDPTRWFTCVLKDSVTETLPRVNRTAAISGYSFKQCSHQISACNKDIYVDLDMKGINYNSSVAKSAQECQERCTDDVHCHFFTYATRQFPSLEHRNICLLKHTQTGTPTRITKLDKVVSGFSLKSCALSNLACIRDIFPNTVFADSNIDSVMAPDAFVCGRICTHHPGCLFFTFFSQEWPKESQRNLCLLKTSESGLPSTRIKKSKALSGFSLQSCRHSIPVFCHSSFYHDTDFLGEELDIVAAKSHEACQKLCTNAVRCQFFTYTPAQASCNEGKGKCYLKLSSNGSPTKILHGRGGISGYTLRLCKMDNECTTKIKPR
Source text: A fluorescence intensity (FLINT) based assay was used to monitor inhibition of Factor XIa. The peptide substrate, 5Fam-KLTRAETV-K5Tamra (purchased from New England Peptide) was chosen based on the FXI sequence. Conversion of zymogen FXI to its activated form, FXIa, occurs by proteolytic cleavage by […] at two sites, Arg146 and Arg180. The custom peptide used in this assay was based on the Arg146 cleavage site of FXI. The peptide substrate was designed with a fluorophore-quencher pair, where the fluorescence is quenched until FXIa cleaves the 8-mer peptide after the Arg residue.

[3] = target: T2, Factor XIa; assay: Factor XIa inhibition assay utilizing a fluorophore-quencher pair peptide substrate (FLINT); details: for IC50: read-out: FXIa IC50; for Ki: read-out: FXIa Ki
Summary of the method: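 Enzyme preincubated 30 min at room temperature with compound (11-point 3-fold dilution, top 100 nM, 2% DMSO), then 15 μM 5Fam-KLTRAETV-K5Tamra substrate added. Buffer: 50 mM Tris pH 7.5, 100 mM NaCl, 5 mM CaCl2, 0.1 mg/mL BSA, 0.03% CHAPS. Fluorescence (485/520 nm) read kinetically over 30 min; IC50 from 4-parameter logistic fit.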

[4] = target: T1, human plasma kallikrein; assay: Kallikrein inhibition assay utilizing a quenched AMC peptide substrate (FLINT); details: 30 min preincubation, 50 μM Z-Gly-Pro-Arg-AMC, 2 nM kallikrein
Summary of the method: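 Human plasma kallikrein (2 nM final) was preincubated 30 min at room temperature with compound (11-point 3-fold dilution, top 1 μM, 2% DMSO) in pH 7.5 Tris buffer with CaCl2, BSA and CHAPS. Z-Gly-Pro-Arg-AMC (50 μM final) fluorescence was read at 340/440 nm every 5 min for 30 min. IC50 came from a 4-parameter logistic fit.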

[5] = cells that print μM themselves in the nM column, same assay conditions
[6] = cells that print μM themselves in the nM column

T1 sequence (P03952 391-638 limits assumed): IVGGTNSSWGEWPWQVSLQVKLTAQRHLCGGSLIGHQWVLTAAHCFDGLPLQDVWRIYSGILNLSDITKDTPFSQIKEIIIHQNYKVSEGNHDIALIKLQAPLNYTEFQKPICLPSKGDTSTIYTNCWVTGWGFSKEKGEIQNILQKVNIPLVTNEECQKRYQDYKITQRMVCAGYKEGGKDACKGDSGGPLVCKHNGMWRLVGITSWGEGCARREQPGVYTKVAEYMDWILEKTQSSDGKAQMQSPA
T1 sequence (P03952 20-390 partner limits assumed): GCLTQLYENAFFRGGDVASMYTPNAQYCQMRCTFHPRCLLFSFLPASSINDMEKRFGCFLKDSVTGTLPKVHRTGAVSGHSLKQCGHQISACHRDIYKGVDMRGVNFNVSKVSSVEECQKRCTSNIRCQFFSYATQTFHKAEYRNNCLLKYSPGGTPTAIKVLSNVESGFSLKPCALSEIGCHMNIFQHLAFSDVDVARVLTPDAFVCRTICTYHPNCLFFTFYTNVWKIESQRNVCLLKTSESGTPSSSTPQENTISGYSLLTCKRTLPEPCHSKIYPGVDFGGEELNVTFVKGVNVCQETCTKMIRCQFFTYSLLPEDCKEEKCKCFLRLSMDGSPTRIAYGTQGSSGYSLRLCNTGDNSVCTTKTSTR

Compound | IC50 [3, 5] [µM] | Ki [3] [µM] | IC50 [4] [nM] | Ki [3, 6] [µM] | further results
Cc1cc(=O)oc2cc(NC(=O)[C@H](CCCNC(=N)N)NC(=O)[C@@H]3CCCN3C(=O)CNC(=O)OCc3ccccc3)ccc12 [Z-Gly-Pro-Arg-AMC] (Cbz-Gly-Pro-Arg-{AMC}) |  |  |  |  | kcat [1]: 0.76 s⁻¹
5Fam-KLTRAETV-K5Tamra (5FAM-KLTRAETV-{K(5-TAMRA)}) [fluorophore-quencher pair peptide substrate based on the Arg146 cleavage site of FXI, purchased from New England Peptide] |  |  |  |  | Ki ([2]; substrate inhibition constant): 61600 nM; Km ([2]; substrate with FXIa): 12.4 µM; kcat ([2]; substrate with FXIa): 0.86 s⁻¹
O=C1NC2(CC2)Cc2ccc(Cl)c(F)c2-c2cc(=O)n3c(c21)CC[C@H]3c1ncc(-c2ccc3snnc3c2)[nH]1 (stereo in doubt) [Compound 31, (S*)-12-(5-(benzo[d][1,2,3]thiadiazol-5-yl)-1H-imidazol-2-yl)-7-chloro-8-fluoro-13,14-dihydro-2H-spiro[benzo[5,6]azocino[4,3-g]indolizine-3,1′-cyclopropane]-1,10(4H,12H)-dione] | 1.18 | 0.588 | > 10000 |  | 
Cn1ncc(-c2cnc(C(CC3CC3)n3cc4c(cc3=O)-c3c(ccc(Cl)c3F)CC3(CC3)NC4=O)[nH]2)cc1=O (single isomer, unassigned) [Compound 58, (R*)-11-chloro-3-(2-cyclopropyl-1-(5-(1-methyl-6-oxo-1,6-dihydropyridazin-4-yl)-1H-imidazol-2-yl)ethyl)-12-fluoro-3H-spiro[benzo[e]pyrido[3,4-c]azocine-7,1′-cyclopropane]-2,5(6H,8H)-dione] | > 10 |  | > 10000 | > 5 | 
Nc1ccc(-c2[nH]c(C3CCc4c5c(cc(=O)n43)-c3cc(Cl)ccc3CC3(CC3)NC5=O)nc2F)c(F)n1 (stereo not shown) [Compound 1, 12-(5-(6-amino-2-fluoropyridin-3-yl)-4-fluoro-1H-imidazol-2-yl)-7-chloro-13,14-dihydro-2H-spiro[benzo[5,6]azocino[4,3-g]indolizine-3,1′-cyclopropane]-1,10(4H,12H)-dione] |  | 0.0008 | 540 |  | IC50 ([3]; 30 min preincubation, 5Fam-KLTRAETV-K5Tamra substrate 15 μM final, kinetic reads): 0.0015 µM
Cc1nc2cc(-c3cnc([C@@H]4CCc5c6c(cc(=O)n54)-c4c(ccc(Cl)c4F)CC4(CC4)NC6=O)[nH]3)ccc2s1 (stereo in doubt) [Compound 4, (S*)-7-chloro-8-fluoro-12-(5-(2-methylbenzo[d]thiazol-5-yl)-1H-imidazol-2-yl)-13,14-dihydro-2H-spiro[benzo[5,6]azocino[4,3-g]indolizine-3,1′-cyclopropane]-1,10(4H,12H)-dione] | 2.29 |  | > 10000 | 1.15 | 
